From ChEMBL document CHEMBL4613241, “Disulfide Cleavage in a Dimeric Epipolythiodioxopiperazine Natural Product Diminishes Its Apoptosis-Inducing Effect but Enhances Autophagy in Tumor Cells” (2020)
Activity calls are given as the source filed them. No cut-off for these calls is given here.

Columns and labels:
HepG2 [1] = experiment: Induction of autophagy in human HepG2 cells assessed as increase in formation of autophagosomes at 0.5 uM by TEM analysis; format: functional, cell-based; conditions: TDE = time-dependent effect
HepG2 [2] = experiment: Induction of apoptosis in human HepG2 cells assessed as increase in cleaved PARP level by measuring ratio of cleaved PARP to total PARP level at 1 uM after 12 hrs by Western blot analysis; format: functional
HeLa [3] = experiment: Inhibition of colony formation in human HeLa at 0.1 uM after 2 weeks by trypan blue staining based assay relative to control; format: functional; conditions: 336 h
HepG2 [4] = experiment: Induction of apoptosis in human HepG2 cells assessed as increase in cleaved PARP level by measuring ratio of cleaved PARP to total PARP level at 0.5 uM after 12 hrs by Western blot analysis; format: functional
HepG2 [5] = experiment: Induction of autophagy in human HepG2 cells assessed as inhibition of lactate generation at 0.5 uM up to 4 hrs; format: functional, cell-based
HepG2 [6] = experiment: Antiproliferative activity against human HepG2 cells assessed as reduction in cell viability at 0.5 uM by MTS assay; format: functional, cell-based; conditions: TDE = time-dependent effect
HeLa [7] = experiment: Inhibition of colony formation in human HeLa at 1 to 5 uM after 2 weeks by trypan blue staining based assay; format: functional, cell-based
HepG2 [8] = experiment: Induction of autophagy in human HepG2 cells assessed as ratio of LC3-2 level to total Erk1/2 protein level at 0.5 uM after 4 hrs in presence of CC by Western blot analysis (reference value: 1.3); format: functional
ACHN = experiment: Antiproliferative activity against human ACHN cells assessed as reduction in cell viability at 5 uM measured up to 72 hrs by MTS assay; format: functional, cell-based
HepG2 [9] = experiment: Induction of apoptosis in human HepG2 cells assessed as increase in cleaved PARP1 level at 5 uM after 12 hrs by Western blot analysis; format: functional, cell-based

| SMILES | Activity (HepG2 [1]) | Ratio (HepG2 [2]) | inhibition at 0.1 µM (HeLa [3]) | Ratio (HepG2 [4]) | inhibition (HepG2 [5]) | Activity (HepG2 [6]) | inhibition (HeLa [7]) | Ratio (HepG2 [8]) | Activity (ACHN) | Activity (HepG2 [9]) |
| --- | --- | --- | --- | --- | --- | --- | --- | --- | --- | --- |
| CC[C@@]12SS[C@]3(C(=O)N1C)[C@@H](O)C1(C45c6ccccc6N[C@@H]4N4C(=O)[C@]6([C@@H](C)O)SS[C@]4(C(=O)N6C)[C@H]5O)c4ccccc4N[C@@H]1N3C2=O (stereo not given in full) | Tde | 1 | 100% | 0.1 | Active | Tde | – | – | – | – |
| CCC1(SC)C(=O)N2[C@H]3N(C)c4ccccc4C3(C34c5ccccc5N(C)[C@@H]3N3C(=O)C(SC)([C@@H](C)O)N(C)C(=O)C3(SC)[C@H]4O)[C@H](O)C2(SC)C(=O)N1C (stereo not given in full) | – | – | – | – | – | – | Active | 0.7 | Active | inactive |
